The values below are quoted from earlier work in patent US12343427B1, “Stable intravenous diltiazem hydrochloride formulation and use thereof” (Nivagen Pharmaceuticals, Inc., priority 2024, dated 2025).

The target in the data set is CYP2D6 (Homo sapiens, UniProt P10635). Particulars: Molden E, et al. Drug Metab Dispos. 30: 1-3 (2002).

The structures appear in SMILES notation.

Chain of CYP2D6 (P10635 whole entry): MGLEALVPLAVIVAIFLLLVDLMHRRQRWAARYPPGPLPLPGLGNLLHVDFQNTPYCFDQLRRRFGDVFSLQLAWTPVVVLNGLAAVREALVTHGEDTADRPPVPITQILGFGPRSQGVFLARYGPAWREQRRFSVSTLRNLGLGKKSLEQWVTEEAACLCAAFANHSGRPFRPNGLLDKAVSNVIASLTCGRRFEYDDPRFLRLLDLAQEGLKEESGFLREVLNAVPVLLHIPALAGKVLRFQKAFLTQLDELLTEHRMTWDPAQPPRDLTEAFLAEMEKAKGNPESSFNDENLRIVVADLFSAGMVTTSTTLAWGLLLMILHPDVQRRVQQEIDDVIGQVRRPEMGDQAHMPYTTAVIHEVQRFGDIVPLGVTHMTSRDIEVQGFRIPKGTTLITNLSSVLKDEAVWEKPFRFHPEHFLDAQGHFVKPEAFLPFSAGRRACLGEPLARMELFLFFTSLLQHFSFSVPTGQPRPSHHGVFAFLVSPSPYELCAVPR

With `COc1ccc([C@@H]2Sc3ccccc3N(CCN(C)C)C(=O)[C@@H]2O)cc1` [Desacetyl-diltiazem], the “affinity to CYP2D6 compared with CYP3A4” value is recorded as “severalfold higher affinity to CYP2D6 compared with CYP3A4”.
